Assay: xn = mol fraction of the nth substance listed

CN(C)P(=O)(N(C)C)N(C)C + CO
303.15 K, 101.3 kPa
Details	viscosity [mPa·s]
x1 = 0.0993	0.829
x1 = 0.2036	1.145
x1 = 0.2984	1.401
x1 = 0.3941	1.63
x1 = 0.4882	1.846
x1 = 0.5898	2.07
x1 = 0.6978	2.308
x1 = 0.778	2.476
x1 = 0.8966	2.722

O=S(Cl)Cl + C1CCCCC1
298.15 K, 101 kPa
Details	viscosity [mPa·s]
x1 = 0.272	0.7201
x1 = 0.466	0.6634
x1 = 0.806	0.6183
x1 = 0.937	0.6156

O=S(=O)([N-]S(=O)(=O)C(F)(F)C(F)(F)F)C(F)(F)F.[Li+] + O
101 kPa, x1 = 0.3
Details	viscosity [mPa·s]
293.15 K	145
298.15 K	114
303.15 K	89.8
313.15 K	58.8
323.15 K	40.2

CCCCCCCCC + CCCCCCCC
298.15 K, 101.33 kPa
Details	viscosity [mPa·s]
x2 = 0.1092	0.631
x2 = 0.2071	0.6264
x2 = 0.3038	0.6069
x2 = 0.4058	0.5951
x2 = 0.5051	0.5768
x2 = 0.6076	0.5586
x2 = 0.7044	0.5497
x2 = 0.8047	0.5318
x2 = 0.9025	0.5116

CCCCCCCCC + CC1CCCCC1
viscosity [mPa·s], 101 kPa
Details	293.15 K	298.15 K	303.15 K	308.15 K
x2 = 0.0426	0.7162	0.6637	0.6214	–
x2 = 0.1052	–	0.664	0.625	0.585
x2 = 0.1496	0.7103	0.6606	0.6176	–
x2 = 0.198	–	0.66	0.614	0.58
x2 = 0.2805	0.7065	0.6594	0.6151	–
x2 = 0.299	–	0.658	0.616	0.578
x2 = 0.3606	0.7056	0.66	0.6148	–
x2 = 0.4018	–	0.659	0.616	0.577
x2 = 0.4418	0.707	0.6607	0.6168	–
x2 = 0.4978	–	0.659	0.617	0.577
x2 = 0.5953	0.7117	0.6639	0.6225	–
x2 = 0.5982	–	0.661	0.62	0.578
x2 = 0.6794	0.7158	0.6669	0.6292	–
x2 = 0.6991	–	0.662	0.618	0.58
x2 = 0.7579	0.7196	0.6709	0.6339	–
x2 = 0.7995	–	0.665	0.62	0.582
x2 = 0.8388	0.7243	0.6757	0.6383	–
x2 = 0.9012	–	0.671	0.626	0.587
x2 = 0.9078	0.7296	0.6788	0.6428	–

C#CCO + O
viscosity [mPa·s]
Details	303.15 K	308.15 K	313.15 K	318.15 K	323.15 K
101 kPa, x1 = 0.1	1.094	0.9708	0.8728	0.7923	0.7208
101 kPa, x1 = 0.166	1.191	1.06	0.9534	0.8633	0.7845
101 kPa, x1 = 0.3	1.275	1.135	1.023	0.9273	0.845
101 kPa, x1 = 0.4	1.291	1.157	1.048	0.9513	0.8707
101 kPa, x1 = 0.499	1.296	1.165	1.054	0.9624	0.8802
101 kPa, x1 = 0.599	1.309	1.179	1.069	0.9758	0.8933
101 kPa, x1 = 0.7	1.313	1.188	1.079	0.9844	0.902
101 kPa, x1 = 0.801	1.327	1.202	1.092	0.9977	0.9169
101 kPa, x1 = 0.899	1.33	1.204	1.095	1	0.9179
101.32 kPa, x1 = 0.1138	–	0.9894	0.8862	0.7991	0.7267
101.32 kPa, x1 = 0.2351	–	1.105	0.9927	0.8936	0.8222
101.32 kPa, x1 = 0.3145	–	1.149	1.034	0.9365	0.8508
101.32 kPa, x1 = 0.4174	–	1.171	1.059	0.9551	0.8741
101.32 kPa, x1 = 0.5002	–	1.186	1.069	0.9676	0.8856
101.32 kPa, x1 = 0.61	–	1.194	1.077	0.9877	0.8958
101.32 kPa, x1 = 0.7185	–	1.2	1.085	0.9924	0.9072
101.32 kPa, x1 = 0.8223	–	1.209	1.095	1	0.9191
101.32 kPa, x1 = 0.9	–	1.216	1.107	1.007	0.9223

ClC(Cl)C(Cl)(Cl)Cl + CC(=O)c1ccccc1
298.15 K, 101 kPa
Details	viscosity [mPa·s]
x2 = 0.1163	2.34
x2 = 0.3295	2.36
x2 = 0.5338	2.26
x2 = 0.7313	2.03
x2 = 0.8974	1.8

C[N+](C)(C)C.[Cl-] + Oc1ccccc1
viscosity [mPa·s], 101 kPa
Details	303.15 K	313.15 K	323.15 K
x1 = 0.2	23.35	16.88	11.9
x1 = 0.25	36.91	23.75	16.31

CC(=O)c1ccccc1 + CC#N
308.15 K, 101 kPa
Details	viscosity [mPa·s]
x1 = 0.048	0.34
x1 = 0.1023	0.3845
x1 = 0.1626	0.4361
x1 = 0.2321	0.4959
x1 = 0.3113	0.5746
x1 = 0.4024	0.6736
x1 = 0.5125	0.8002
x1 = 0.6426	0.9514
x1 = 0.8018	1.144
x1 = 0.9135	1.284

CCC(O)CC + c1ccccc1
293.15 K, 101 kPa
Details	viscosity [mPa·s]
x1 = 0.00635	0.6446
x1 = 0.01101	0.6433
x1 = 0.01253	0.643
x1 = 0.01995	0.6415
x1 = 0.02106	0.6411
x1 = 0.02501	0.641
x1 = 0.02806	0.6407
x1 = 0.03344	0.6406
x1 = 0.03446	0.6405
x1 = 0.03706	0.6399
x1 = 0.04178	0.6401
x1 = 0.04896	0.6415
x1 = 0.05587	0.6414
x1 = 0.06451	0.6436
x1 = 0.08637	0.6486
x1 = 0.1808	0.6856
x1 = 0.2725	0.7429
x1 = 0.3756	0.835
x1 = 0.468	0.9578
x1 = 0.6521	1.402
x1 = 0.7757	1.943
x1 = 0.8899	2.92

ClC(Cl)C(Cl)(Cl)Cl + CCOc1ccccc1
298.15 K, 101 kPa
Details	viscosity [mPa·s]
x2 = 0.0971	2.1
x2 = 0.2214	1.92
x2 = 0.4895	1.607
x2 = 0.6798	1.393
x2 = 0.903	1.206

O=S(Cl)Cl + CCOC(C)=O
298.15 K, 101 kPa
Details	viscosity [mPa·s]
x1 = 0.225	0.4911
x1 = 0.316	0.5174
x1 = 0.534	0.5759
x1 = 0.7	0.6117
x1 = 0.83	0.6177
